In the supplement of paper PMC10883282:

How the values were obtained:
Assay in all cases: relative viability vs DMSO control (72 h) (fraction); higher = more viable cells
[1] = tested on: A204
In short: (§1)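 A 5 µM positive control and 0.1% DMSO vehicle ran alongside sarcoma cell lines seeded in 384-well plates to reach 80–90% confluence. Serially diluted compound, 2.5 µl from source plates of 10 mM to 0.0002 mM, was added after 24 h, and the plates were held 72 h at 37 °C, 5% CO2. Relative viability was worked out from ATPLite readings as percent growth averaged over up to triplicate wells. The values were rescaled so that 1 is full and 0 is none.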

[2] = tested on: G401
In short: as §1

[3] = tested on: HS729
In short: as §1

[4] = tested on: HT1080
In short: as §1

[5] = tested on: KHOS-NP
In short: as §1

[6] = tested on: MES-SA
In short: as §1

[7] = tested on: SK-LMS-1
In short: as §1

[8] = tested on: SW1353
In short: as §1

[9] = tested on: SW684
In short: as §1

[10] = tested on: SW872
In short: as §1

[11] = tested on: SYO-1
In short: as §1

[12] = tested on: VA-ES-BJ
In short: as §1

C=CC(=O)Nc1cccc(Nc2nc(Nc3ccc(N4CCN(C(C)=O)CC4)cc3OC)ncc2C(F)(F)F)c1 [Rociletinib]
Settings	relative viability
[1], 0.00017 µM	1.06
[1], 0.00051 µM	1.08
[1], 0.00152 µM	1.13
[1], 0.00457 µM	1.1
[1], 0.01372 µM	1.12
[1], 0.04115 µM	1.04
[1], 0.1235 µM	1.11
[1], 0.3704 µM	1.08
[1], 1.111 µM	1.03
[1], 3.333 µM	0.589
[1], 10 µM	0.302
[2], 0.00017 µM	1.04
[2], 0.00051 µM	1.07
[2], 0.00152 µM	1.04
[2], 0.00457 µM	1.05
[2], 0.01372 µM	1.04
[2], 0.04115 µM	1.02
[2], 0.1235 µM	1.05
[2], 0.3704 µM	1.02
[2], 1.111 µM	0.827
[2], 3.333 µM	0.54
[2], 10 µM	0.211
[3], 0.00017 µM	1.01
[3], 0.00051 µM	0.925
[3], 0.00152 µM	0.9024
[3], 0.00457 µM	0.9205
[3], 0.01372 µM	0.902
[3], 0.04115 µM	0.924
[3], 0.1235 µM	0.89
[3], 0.3704 µM	0.812
[3], 1.111 µM	0.697
[3], 3.333 µM	0.573
[3], 10 µM	0.343
[4], 0.00017 µM	1.07
[4], 0.00051 µM	1.06
[4], 0.00152 µM	1.05
[4], 0.00457 µM	1.06
[4], 0.01372 µM	1.04
[4], 0.04115 µM	1.03
[4], 0.1235 µM	1.06
[4], 0.3704 µM	1.1
[4], 1.111 µM	1.03
[4], 3.333 µM	0.997
[4], 10 µM	0.454
[5], 0.00017 µM	1.09
[5], 0.00051 µM	1.1
[5], 0.00152 µM	1.113
[5], 0.00457 µM	1.09
[5], 0.01372 µM	1.09
[5], 0.04115 µM	1.06
[5], 0.1235 µM	1.09
[5], 0.3704 µM	1.07
[5], 1.111 µM	1.06
[5], 3.333 µM	1.025
[5], 10 µM	0.537
[6], 0.00017 µM	0.95
[6], 0.00051 µM	0.955
[6], 0.00152 µM	0.942
[6], 0.00457 µM	0.957
[6], 0.01372 µM	0.942
[6], 0.04115 µM	0.944
[6], 0.1235 µM	0.926
[6], 0.3704 µM	0.9383
[6], 1.111 µM	0.765
[6], 3.333 µM	0.329
[6], 10 µM	0.193
[7], 0.00017 µM	1.07
[7], 0.00051 µM	1.089
[7], 0.00152 µM	1.07
[7], 0.00457 µM	1.07
[7], 0.01372 µM	1.05
[7], 0.04115 µM	1.03
[7], 0.1235 µM	1.04
[7], 0.3704 µM	0.961
[7], 1.111 µM	0.847
[7], 3.333 µM	0.638
[7], 10 µM	0.373
[8], 0.00017 µM	1.04
[8], 0.00051 µM	1
[8], 0.00152 µM	1.01
[8], 0.00457 µM	1.06
[8], 0.01372 µM	1
[8], 0.04115 µM	1.01
[8], 0.1235 µM	1.01
[8], 0.3704 µM	0.962
[8], 1.111 µM	0.769
[8], 3.333 µM	0.594
[8], 10 µM	0.338
[9], 0.00017 µM	1.13
[9], 0.00051 µM	1.16
[9], 0.00152 µM	1.16
[9], 0.00457 µM	1.17
[9], 0.01372 µM	1.18
[9], 0.04115 µM	1.18
[9], 0.1235 µM	1.14
[9], 0.3704 µM	1.1
[9], 1.111 µM	1.004
[9], 3.333 µM	0.908
[9], 10 µM	0.666
[10], 0.00017 µM	1.1
[10], 0.00051 µM	1.08
[10], 0.00152 µM	1.07
[10], 0.00457 µM	1.07
[10], 0.01372 µM	1.05
[10], 0.04115 µM	1.048
[10], 0.1235 µM	1.04
[10], 0.3704 µM	1.01
[10], 1.111 µM	0.89
[10], 3.333 µM	0.713
[10], 10 µM	0.475
[11], 0.00017 µM	0.99
[11], 0.00051 µM	0.983
[11], 0.00152 µM	0.949
[11], 0.00457 µM	0.93
[11], 0.01372 µM	0.893
[11], 0.04115 µM	0.903
[11], 0.1235 µM	0.872
[11], 0.3704 µM	0.867
[11], 1.111 µM	0.749
[11], 3.333 µM	0.459
[11], 10 µM	0.118
[12], 0.00017 µM	1.04
[12], 0.00051 µM	1.05
[12], 0.00152 µM	1.02
[12], 0.00457 µM	1.03
[12], 0.01372 µM	0.981
[12], 0.04115 µM	0.991
[12], 0.1235 µM	0.994
[12], 0.3704 µM	0.972
[12], 1.111 µM	0.915
[12], 3.333 µM	0.648
[12], 10 µM	0.399

CC[C@@H]1C(=O)N(C)c2cnc(Nc3ccc(C(=O)N[C@H]4CC[C@H](N5CCN(CC6CC6)CC5)CC4)cc3OC)nc2N1C(C)C [Volasertib]
Settings	relative viability
[1], 0.00017 µM	1.13
[1], 0.00051 µM	1.1
[1], 0.00152 µM	1.07
[1], 0.00457 µM	1.1
[1], 0.01372 µM	1.08
[1], 0.04115 µM	0.858
[1], 0.1235 µM	0.669
[1], 0.3704 µM	0.418
[1], 1.111 µM	0.253
[1], 3.333 µM	0.174
[1], 10 µM	0.0197
[2], 0.00017 µM	1.01
[2], 0.00051 µM	1.03
[2], 0.00152 µM	1.05
[2], 0.00457 µM	1.03
[2], 0.01372 µM	1.02
[2], 0.04115 µM	0.845
[2], 0.1235 µM	0.5129
[2], 0.3704 µM	0.427
[2], 1.111 µM	0.338
[2], 3.333 µM	0.243
[2], 10 µM	0.00683
[3], 0.00017 µM	0.954
[3], 0.00051 µM	0.995
[3], 0.00152 µM	0.981
[3], 0.00457 µM	0.954
[3], 0.01372 µM	0.87
[3], 0.04115 µM	0.685
[3], 0.1235 µM	0.622
[3], 0.3704 µM	0.657
[3], 1.111 µM	0.641
[3], 3.333 µM	0.612
[3], 10 µM	0.0591
[4], 0.00017 µM	1.057
[4], 0.00051 µM	1.06
[4], 0.00152 µM	1.06
[4], 0.00457 µM	1.04
[4], 0.01372 µM	1.03
[4], 0.04115 µM	0.9978
[4], 0.1235 µM	0.239
[4], 0.3704 µM	0.13
[4], 1.111 µM	0.139
[4], 3.333 µM	0.0909
[4], 10 µM	0.00783
[5], 0.00017 µM	1.07
[5], 0.00051 µM	1.06
[5], 0.00152 µM	1.07
[5], 0.00457 µM	1.08
[5], 0.01372 µM	1.09
[5], 0.04115 µM	1.01
[5], 0.1235 µM	0.471
[5], 0.3704 µM	0.276
[5], 1.111 µM	0.222
[5], 3.333 µM	0.184
[5], 10 µM	0.0214
[6], 0.00017 µM	0.938
[6], 0.00051 µM	0.966
[6], 0.00152 µM	0.936
[6], 0.00457 µM	0.932
[6], 0.01372 µM	0.924
[6], 0.04115 µM	0.637
[6], 0.1235 µM	0.173
[6], 0.3704 µM	0.0889
[6], 1.111 µM	0.0861
[6], 3.333 µM	0.072
[6], 10 µM	0.0076
[7], 0.00017 µM	1.04
[7], 0.00051 µM	1.01
[7], 0.00152 µM	1.05
[7], 0.00457 µM	1.04
[7], 0.01372 µM	1
[7], 0.04115 µM	0.551
[7], 0.1235 µM	0.492
[7], 0.3704 µM	0.453
[7], 1.111 µM	0.459
[7], 3.333 µM	0.3806
[7], 10 µM	0.0152
[8], 0.00017 µM	0.972
[8], 0.00051 µM	0.954
[8], 0.00152 µM	0.945
[8], 0.00457 µM	0.949
[8], 0.01372 µM	0.958
[8], 0.04115 µM	0.902
[8], 0.1235 µM	0.635
[8], 0.3704 µM	0.52
[8], 1.111 µM	0.4419
[8], 3.333 µM	0.3712
[8], 10 µM	0.063
[9], 0.00017 µM	1.19
[9], 0.00051 µM	1.21
[9], 0.00152 µM	1.22
[9], 0.00457 µM	1.17
[9], 0.01372 µM	1.13
[9], 0.04115 µM	0.694
[9], 0.1235 µM	0.675
[9], 0.3704 µM	0.731
[9], 1.111 µM	0.675
[9], 3.333 µM	0.6025
[9], 10 µM	0.0835
[10], 0.00017 µM	1.06
[10], 0.00051 µM	1.03
[10], 0.00152 µM	1.05
[10], 0.00457 µM	1.08
[10], 0.01372 µM	1.06
[10], 0.04115 µM	0.623
[10], 0.1235 µM	0.437
[10], 0.3704 µM	0.269
[10], 1.111 µM	0.176
[10], 3.333 µM	0.0454
[10], 10 µM	0.00513
[11], 0.00017 µM	0.966
[11], 0.00051 µM	0.974
[11], 0.00152 µM	0.958
[11], 0.00457 µM	0.912
[11], 0.01372 µM	0.549
[11], 0.04115 µM	0.352
[11], 0.1235 µM	0.311
[11], 0.3704 µM	0.131
[11], 1.111 µM	0.00893
[11], 3.333 µM	-0.0446
[11], 10 µM	-0.0423
[12], 0.00017 µM	1.04
[12], 0.00051 µM	1.04
[12], 0.00152 µM	1.07
[12], 0.00457 µM	1.06
[12], 0.01372 µM	1.04
[12], 0.04115 µM	0.486
[12], 0.1235 µM	0.234
[12], 0.3704 µM	0.108
[12], 1.111 µM	0.0943
[12], 3.333 µM	0.074
[12], 10 µM	-0.00633
